According to BindingDB's records for patent WO2022064009 (JANSSEN PHARMACEUTICA NV, 2022):

Molecular target: CDK-activating kinase assembly factor MAT1/Cyclin-H/Cyclin-dependent kinase 7 (Homo sapiens, UniProt P50613)
Assay: n Vitro CDK7 (20 nM) Assay
Method: Compounds with potencies approaching the limit of detection of the assay (IC50 < 10 nM) were further assessed in a more sensitive fluorescence end-point assay. […] Absorbance at 340 nm was followed kinetically at an interval of 2 minutes for 8 hours.The assay was carried out with 100 μl reaction volume per well in a 384-well plate that was pre-spotted nanoliter volume of compounds by LabCyte Echo 555. Compound dilution plates were made by 2-fold (could vary upon necessity) dilution in DMSO for 11 concentrations plus a DMSO control of uninhibited reaction. 2x substrate and coupling reagent mixture was added to the assay plate followed by an addition of an equal volume of 40 nM CDK7/Cyclin H/MAT-1 complex. After mixing, assay plates were spun at 2000 rpm for 3 minutes and then transferred to the plate reader for data collection.

Chain of CDK-activating kinase assembly factor MAT1/Cyclin-H/Cyclin-dependent kinase 7 (P51946 whole entry): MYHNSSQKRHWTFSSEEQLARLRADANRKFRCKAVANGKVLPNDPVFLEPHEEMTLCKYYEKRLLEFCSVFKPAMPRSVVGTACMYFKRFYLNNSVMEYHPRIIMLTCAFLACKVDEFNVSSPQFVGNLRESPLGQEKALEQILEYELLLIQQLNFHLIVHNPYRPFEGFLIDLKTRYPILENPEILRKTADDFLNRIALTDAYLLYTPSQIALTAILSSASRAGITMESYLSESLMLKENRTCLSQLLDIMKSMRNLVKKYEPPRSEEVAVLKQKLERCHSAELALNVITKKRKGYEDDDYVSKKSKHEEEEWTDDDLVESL
Chain of CDK-activating kinase assembly factor MAT1/Cyclin-H/Cyclin-dependent kinase 7 (P50613 whole entry): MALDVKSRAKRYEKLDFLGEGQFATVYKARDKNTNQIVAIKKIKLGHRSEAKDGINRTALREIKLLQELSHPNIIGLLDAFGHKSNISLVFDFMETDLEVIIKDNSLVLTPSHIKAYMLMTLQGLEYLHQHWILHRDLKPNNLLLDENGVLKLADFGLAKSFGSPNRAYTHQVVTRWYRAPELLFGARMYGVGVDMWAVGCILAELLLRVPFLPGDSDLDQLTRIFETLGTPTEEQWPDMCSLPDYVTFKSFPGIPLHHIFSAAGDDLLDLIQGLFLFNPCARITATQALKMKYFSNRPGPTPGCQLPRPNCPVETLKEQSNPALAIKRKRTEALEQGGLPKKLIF
Chain of CDK-activating kinase assembly factor MAT1/Cyclin-H/Cyclin-dependent kinase 7 (P51948 whole entry, further chain): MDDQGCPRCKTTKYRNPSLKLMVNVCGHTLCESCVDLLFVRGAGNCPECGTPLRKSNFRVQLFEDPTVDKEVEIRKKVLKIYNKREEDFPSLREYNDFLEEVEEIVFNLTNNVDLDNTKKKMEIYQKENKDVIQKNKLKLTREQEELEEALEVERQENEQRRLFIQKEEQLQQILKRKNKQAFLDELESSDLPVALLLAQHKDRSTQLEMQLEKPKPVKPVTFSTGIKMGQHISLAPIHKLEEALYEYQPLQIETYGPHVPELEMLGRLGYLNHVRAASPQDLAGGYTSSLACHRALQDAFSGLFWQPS

IC50: 575 nM
SMILES: C[C@@H]1Cc2cnc(NC3CCOCC3)nc2CN1C(=O)[C@H]1CCN(C2COC2)C[C@@H]1c1ccccc1 [WO2022064009, Compound 159]
